Test results reported in patent US20160229835A1, “NOVEL PYRIDYLOXYACETYL TETRAHYDROISOQUINOLINE COMPOUNDS USEFUL AS NAMPT INHIBITORS” (ELI LILLY AND COMPANY, priority 2013, published 2016).

Columns and labels:
[1] = test system: A2780 tumor model; assay: Efficacy in Xenograft Tumor Models, A2780; format: in vivo; settings: nude mice, 4-day-on and 3-day-off schedule for 17 days
Experimental: (§1) The purpose of this assay is to measure reduction in tumor volume in response to test compound administration. A2780 and NCI-H1155 (NSCLC) cells are grown as described above for IVTI studies. Cells are harvested and injected subcutaneously onto the rear flank of nude mice. When tumors are established (7-21 days after implant), animals are randomized and grouped into control and test groups (7 animals/group). The test compound is formulated in 20% of CAPTISOL® and 25 mM of phosphate buffer, pH 2. Test compound and vehicle (20% of CAPTISOL® and 25 mM of phosphate buffer, pH 2 without compound) are administered by oral gavage. Tumor response is determined by tumor volume measurement (caliper) performed twice a week during the course of treatment and reported as percent of tumor volume of each treatment group divided by tumor volume of the vehicle control group. […] For example, Example 1 in H1155 tumor model, when dosed at 10 mg/kg (twice a day (BID) on a 4-day-on and 3-day-off schedule for 17 days, a T/C of 5.5 (P value<0.001 based on T-test) is achieved; when dosed at 20 mg/kg on the same schedule, a T/C of −81.1 (P value<0.001 based on T-test) is achieved. Example 2 in H1155 tumor model, when dosed at 8 mg/kg (twice a day (BID) on a 4-day-on and 3-day-off schedule for 17 days, a T/C of 5.2 (P value<0.001 based on T-test) is achieved; when dosed at 16 mg/kg on the same schedule, a T/C of −82.7 (P value<0.001 based on T-test) is achieved. Example 1 in A2780 tumor model, when dosed at 10 mg/kg (twice a day (BID) on a 4-day-on and 3-day-off schedule for 17 days, a T/C of 41.7 (P value<0.007 based on T-test) is achieved; when dosed at 20 mg/kg on the same schedule, a T/C of 2.4 (P value<0.001 based on T-test) is achieved.

[2] = test system: H1155 tumor model; assay: Efficacy in Xenograft Tumor Models, NCI-H1155; format: in vivo; settings: nude mice, 4-day-on and 3-day-off schedule for 17 days
Experimental: as §1

[3] = test system: HCC1937 (breast cancer) cells; assay: Cell Viability Assay, HCC1937; format: cell-based; settings: Homo sapiens, 72 hours
Experimental: (§2) The purpose of this assay is to measure the ability of a compound to reduce viability of different cancer cells dependent on the NAMPT-mediated NAD^+ formation in vitro. HCC1937 (breast cancer) cells are cultured in RPMI-1640 supplemented with 10% FBS. Calu-6 (lung cancer) cells and MCF-7 (breast cancer) cells are cultured in Minimum Essential Medium (MEM) (Gibco11095) supplemented with 1 mM sodium pyruvate (Gibco 11360), 1% Non-Essential Amino Acids Solution (100×; Gibco 11140) and 10% FBS. NCI-H1155 (lung cancer) cells are cultured in Dulbecco's Modified Eagle Medium (DMEM) (Gibco 11965) with 10% FBS. […] Cell viability is analyzed by using an assay kit (CYTOTOX-GLO™ Cytotoxicity Assay kit, Promega) according to the manufacturer's instructions as follows. […] Luminescence is measured using a Wallac Victor3 V 1420 Multilabel Counter (Perkin Elmer), referred to as dead cell luminescence. […] After the plate is incubated at room temperature for 15 minutes, luminescence is measured using the plate reader, referred to as total luminescence. Viable cell luminescence (CPS) is calculated by subtracting the dead cell luminescence from the total luminescence Inhibition of cell viability is calculated based on the equation as follows:
(§3) Inhibition (%)=(CPSnegative−CPSsample)/(CPSnegative−CPSpositive)*100 where CPS is the luminescence of viable cells.

[4] = test system: Calu-6 (lung cancer) cells; assay: Cell Viability Assay, Calu-6; format: cell-based; settings: Homo sapiens, 72 hours
Experimental: as §2, §3

SMILES	T/C (tumor volume of treatment group divided by vehicle control group) ([1]; 10 mg/kg BID oral) [%]	T/C (tumor volume of treatment group divided by vehicle control group) ([1]; 20 mg/kg BID oral) [%]	T/C (tumor volume of treatment group divided by vehicle control group) ([2]; 10 mg/kg BID oral) [%]	T/C (tumor volume of treatment group divided by vehicle control group) ([2]; 20 mg/kg BID oral) [%]	IC50 [3] [nM]	IC50 [4] [nM]	T/C (tumor volume of treatment group divided by vehicle control group) ([1]; 8 mg/kg BID oral) [%]	T/C (tumor volume of treatment group divided by vehicle control group) ([1]; 16 mg/kg BID oral) [%]	T/C (tumor volume of treatment group divided by vehicle control group) ([2]; 8 mg/kg BID oral) [%]	T/C (tumor volume of treatment group divided by vehicle control group) ([2]; 16 mg/kg BID oral) [%]
CC(C)(O)CS(=O)(=O)Nc1ccc2c(c1)CCN(C(=O)COc1cccnc1)C2 [Example 1, 2-Hydroxy-2-methyl-N-[2-[2-(3-pyridyloxy)acetyl]-3,4-dihydro-1H-isoquinolin-6-yl]propane-1-sulfonamide]	41.7	2.4	5.5	−81.1	333 ± 32	49 ± 8	–	–	–	–
COCCS(=O)(=O)Nc1ccc2c(c1)CCN(C(=O)COc1cccnc1)C2 [Example 2, 2-Methoxy-N-[2-[2-(3-pyridyloxy)acetyl]-3,4-dihydro-1H-isoquinolin-6-yl]ethanesulfonamide]	–	–	–	–	1040 ± 664	121 ± 29	40.5	1.5	5.2	−82.7
